Data on eleven molecules can be found in PubChem BioAssay (NCI).

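Method: 48-hour compound exposure of cells in 96-well plates, five concentrations, linear interpolation of endpoints. Here, GI50 denotes the concentration required for 50% inhibition of growth. TGI: concentration producing complete growth inhibition.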 Where only a bound is given, the exact number is not on record here.

Common to all, as to assay: NCI anticancer screen, dose series, 48 h
Test [1] relates to NCI-H460 lung.
Test [2] relates to NCI-H23 lung.
Test [3] has as its system HCT-15 colon.
Test [4] deals with UACC-257 melanoma.
The subject of test [5] is SNB-19 CNS.
Test [6] relates to UO-31 renal.
Test [7] has as its system BT-549 breast.
Test [8] deals with UACC-62 melanoma.
In test [9] the test system is HL-60(TB) leukemia.
In test [10] the test system is SN12C renal.

As for `CC1OC(OC2C(OC(=O)[C@@H]3CC(C)(C)C[C@H]4C5=CC[C@@H]6[C@@]7(C)C[C@H](O)[C@H](OC8OC(CO)C(O)C(O)C8O)[C@@](C)(CO)[C@@H]7[C@H](O)C[C@@]6(C)[C@]5(C)CC[C@@]34C)OCC(O)C2O)C(O)C(O)C1O` (stereo not given in full), the TGI in [1], in [2], in [3], in [4], in test [5] and in [6] was over 7.5 µM throughout. Further, the TGI in test [7], in [8], in test [9] and in test [10] was over 7.5 µM each time.
With `CC1OC(O[C@H]2/C=C/C=C/C=C/C=C/C=C/C=C/C=C/[C@H](C)[C@@H](O)[C@@H](C)[C@H](C)OC(=O)CC(O)CC(O)CCC(O)C(O)CC(O)C[C@]3(O)C[C@H](O)C(C(=O)O)C(C2)O3)C(O)[C@H](N)C1O` (stereo not given in full), the GI50 is 2140 nM in test [1]; 2110 nM in test [2]; 12 µM in [3]; 1750 nM in test [4]; 2570 nM in test [5]; 1400 nM in [6]. The GI50 in [7] is 13.9 µM; in test [8] it was 2780 nM; in test [9], 3.79 µM; in test [10], 1580 nM. In addition, the TGI in test [1] came to 4.84 µM; in test [2], 5.36 µM; in [3], 54 µM; in [4], 3.4 µM; in test [5], 6.52 µM; in [6] it was 2.76 µM. Also, the TGI worked out at 30.4 µM in test [7], 7.62 µM in [8], 10.9 µM in [9] and 2.99 µM in [10].
Consider `CCC[C@H](C)C[C@H](C)C[C@H](C)/C=C(\C)[C@@H](O)[C@@H](C)C(=O)CC`, for which the TGI in test [1] came to 53.4 µM; in test [2], 33.3 µM; in test [3], 41.7 µM; in [4], 38.9 µM; in test [5] it was 36.1 µM; in test [6] it was 41.7 µM. Further, the TGI in [7] amounted to 44.1 µM; in test [8], 33.8 µM; in test [9] it was 36.2 µM; in [10], 35.5 µM.
Consider `CSCCC(NC(=O)Cc1ccc(C(=O)c2ccccc2)cc1)C(=O)O` (stereo not given), for which the TGI in [1], in test [2], in test [3], in test [4], in test [5] and in test [6] was over 100 µM each time. In addition, the TGI in test [7], in test [8], in test [9] and in test [10] was over 100 µM throughout.
Consider `CCOC(=O)[C@H](Cc1ccc(O)cc1)N=C1[C@H]2CCC[C@]1(O)[C@@](C)([N+](=O)[O-])C2`, for which the TGI in test [1], in [2], in test [3], in test [4], in test [5] and in test [6] was over 100 µM throughout. The TGI in test [7], in [8], in test [9] and in test [10] was over 100 µM in each case.
For `Fc1ccccc1C1SCc2nc3cc4ccccc4cc3n21` (stereo not given), the TGI in test [1], in [2], in test [3], in [4], in test [5] and in test [6] was over 100 µM throughout. Further, the TGI in test [7], in [8], in test [9] and in [10] was over 100 µM in each case.
Turning to `COC(=O)C1=C(OC(=O)c2ccccc2)C(C(=O)OC)[C@]2(O)[C@@H](C(=O)OC)[C@H]1C[C@@H](c1ccccc1)[C@@H]2C(=O)OC` (stereo not given in full), the TGI in test [1] was determined as 42.4 µM; in test [2], 32.7 µM; in test [3] it was 35.4 µM; in test [4], 84.6 µM; in test [5], 41.7 µM; in test [6], 10.1 µM. Besides, the TGI in test [7] is 75.6 µM; in test [8] it was 60.4 µM; in test [9], 21.1 µM; in test [10], 43.2 µM.
As to `N#C/C(=C\c1c[nH]c2ccccc12)C(=O)c1ccc(O)c(O)c1`, the TGI is over 100 µM in test [1]; over 100 µM in test [2]; over 100 µM in test [3]; over 100 µM in [4]; 98.1 µM in [5]; 45.9 µM in test [6]. The TGI in test [7] was 65.1 µM; in [8] it was over 100 µM; in test [9], 59.5 µM; in test [10] it was over 91.5 µM.
Regarding `Cc1nc(-c2ccc(N=Cc3ccc(N(CCOS(C)(=O)=O)CCOS(C)(=O)=O)cc3C)cc2)cs1`, the TGI in test [1] is over 100 µM; in [2] it was over 100 µM; in [3], over 100 µM; in test [4], over 100 µM; in test [5] it was over 100 µM; in test [6], 62 µM. In addition, the TGI in test [7] was over 100 µM; in test [8], over 100 µM; in [9], 47.3 µM; in test [10], over 100 µM.
Turning to `COc1nc(N)c(N=CC(OC(C)=O)C(OC(C)=O)C(COC(C)=O)OC(C)=O)c(=O)n1C` (stereo not given), the TGI in [1], in test [2], in test [3], in [4], in [5] and in test [6] was over 100 µM in each case. Besides, the TGI in [7], in test [8], in test [9] and in test [10] was over 100 µM in each case.
In the case of `CCOc1cc(NC(C)=O)ccc1C(=O)NN1C(=O)C(Cl)C1c1ccco1` (stereo not given), the TGI in test [1] was determined as 35.1 µM; in test [2], 39 µM; in test [3], 46.6 µM; in test [4], 34.2 µM; in [5], 32.1 µM; in [6] it was 11.5 µM. In addition, the TGI came to 30.4 µM in test [7], 25.6 µM in test [8], 43.4 µM in [9] and 32.8 µM in test [10].
